{"source": "patent US11123426B2", "about": "“Use of vista agonists and antagonists to suppress or enhance humoral immunity” (THE TRUSTEES OF DARTMOUTH COLLEGE, priority 2014, dated 2021)", "assay_type_in_all_cases": "cell-based, mice", "key": {"Ly6C+CD11b+ MDSCs [1]": {"system": "Ly6C+CD11b+ MDSCs", "assay": "3H-thymidine proliferation assay: MDSC suppression of B-cell responsiveness, w.t. B6 responder spleen cells stimulated with α-CD40 and IL-4", "conditions": "FIG. 2A; MDSCs pretreated one hour with 0.8 mM L-NMMA or 80 ug/ml α-VISTA (13F3); R:S 3:1; three days", "method": "(§1) 3H-Thymidine incorporation proliferation assays. For responder cells, 5×10^5 non-infected spleen cells, which were either non-fractionated or CD19+ purified, were plated into 96 well flat bottom plates along with 1.6×105 (unless otherwise indicated) CD11b+Ly6G+, or CD11b+Ly6C+, enriched suppressor cells obtained from spleens of 5-w.p.i. LP-BM5 mice of the indicated w.t. B6 or B6 knock-out strains. […] For the percent suppression calculation, first, the percent residual responsiveness (R) was calculated as follows: R=(cpm of co-cultured responder cells and experimental suppressor cells)[…](cpm of co-cultured responder cells and control, non-infected suppressor cells)×100%. Standard deviations of the mean were determined for triplicate wells, and were statistically compared by the two-tailed, two sample equal variance, Student T test. […]"}, "Ly6C+CD11b+ MDSCs [2]": {"system": "Ly6C+CD11b+ MDSCs", "assay": "3H-thymidine proliferation assay: MDSC suppression of T-cell responsiveness, w.t. B6 responder spleen cells stimulated with Con A", "conditions": "FIG. 2B, MDSCs pretreated with 0.8 mM L-NMMA or 80 ug/ml α-VISTA (13F3), R:S 3:1, three days", "method": "as §1"}, "[3]": {"system": "monocytic MDSCs (Ly6C+CD11b+)", "assay": "CFSE dilution proliferation assay of CD19+ B cells with monocytic MDSCs", "conditions": "FIG. 4, w.t. MDSCs, CFSE labeled VISTA−/− responders", "method": "CFSE dilution proliferation assays. Naïve responder splenocytes were labeled with 5.iM CFSE (Cell trace, CFSE proliferation Kit, Molecular Probes, Eugene, Oreg.) in PBS/0.5% BSA for 10 minutes at 37° C. followed by the addition of cold 10% FBS in RPM1 for 5 minutes on ice. After three cold 10% FCS/RPMI washes, cell cultures were set up in the same manner as that for the 3H-thymidine incorporation proliferation assays described above. On culture day 4, wells were stained with monoclonal antibody (mAb): ct-CD19-PerCP (Biolegend, San Diego, Calif.) and were analyzed on a FACSCalibur flow cytometer (BD bioscience, San Jose, Calif.).\nThis example relates to the experiments in FIG. 4. In these experiments purified monocytic MDSCs (Ly6C+CD11b+) from 5 week LP-BM5 infected mice of the indicated strains, show differing patterns of suppression of naïve VISTA−/− spleen cell proliferation as assessed by flow cytometry. CFSE labeled VISTA−/− responder cells were cultured for […] in the presence (+) or absence (−) of ct-CD40+ IL-4, and with or without monocytic MDSCs (a) (−); (b) (+) (grey shaded curves); (c) (+), W.t. MDSCs (in black open curves); (d) (+), DNMMA treated W.t. […] MDSCs; Cells from all cultures were stained at the termination of a four day incubation, with ct-CD19 fluorochrome conjugated mAb and CFSE dilution was also assessed by FACS. […]"}, "Ly6C+CD11b+ MDSCs [4]": {"system": "Ly6C+CD11b+ MDSCs", "assay": "3H-thymidine proliferation assay: MDSC suppression of B-cell responsiveness with VISTA−/− responder spleen cells (α-CD40 and IL-4)", "conditions": "FIG. 5A", "method": "as §1\nThis example relates to the experiments in FIG. 5. […] The % suppression was calculated for both (A) and (B) by cpm responder 3H thymidine incorporation. […]"}}, "data": [{"compound": "CNC(=N)NCCC[C@H](N)C(=O)O", "note": "[LNMMA, NG-monomethyl-L-Arginine]", "values": [{"measurement": "blocking of MDSC suppression of B-cell responsiveness", "setting": "Ly6C+CD11b+ MDSCs [1]", "result": "~50", "unit": "%"}, {"measurement": "blocking of MDSC suppression of T-cell responsiveness", "setting": "Ly6C+CD11b+ MDSCs [2]", "result": "essentially completely dependent on iNOS/NO"}, {"measurement": "restoration of B-cell proliferation curve towards control B cells stimulated in absence of MDSCs (CFSE)", "setting": "[3]", "result": "partially restored"}, {"measurement": "extent of blocking of VISTA−/− MDSC suppression of B-cell responsiveness", "setting": "Ly6C+CD11b+ MDSCs [4]; MDSC of VISTA−/− origin", "result": "~100", "unit": "%"}, {"measurement": "blocking of w.t. MDSC suppression of B-cell responsiveness", "setting": "Ly6C+CD11b+ MDSCs [4]; w.t. MDSC", "result": "partially blocked"}]}]}
